This note sets out measurements from patent US20180044343A1, “BICYCLIC IMIDAZOLO DERIVATIVE” (Sumitomo Dainippon Pharma Co., Ltd., priority 2015, published 2018).

What all share (format): biochemical
Assay [1] concerns the target PDE1C (Homo sapiens, UniProt Q14123). Description: In vitro HTRF PDE1 inhibition assay (PDE1C). To be noted: 100 nM cyclic GMP. The text has this: (§1) An exemplary procedure for the in vitro Homogenous Time Resolved Fluorescence assay, which can be used to determine the inhibitory action of compounds of the present invention toward PDE1 or its isoforms, follows.
(§2) The HTRF PDE1 assay utilized the HTRF (Homogenous Time Resolved Fluorescence) technology, which is based on the competition between unlabeled cyclic nucleotide and cyclic nucleotide labeled with XL665 for the binding to cyclic nucleotide-specific antibody labeled with cryptate. The HTRF signal is thus inversely proportional to the concentration of cyclic nucleotide being measured. Since phosphodiesterases break down cyclic nucleotides, the HTRF signal was used to determine PDE activity.
(§3) The Cisbio cGMP HTRF assay kit (Cat no: 62GM2PEC) was utilized. Cyclic GMP was diluted to 200 nM in HTRF assay buffer (1 mM CaCl2, 10 mM MgCl2, 10 mM Tris-HCl, 0.1% BSA, pH 7.4). 10 μl of compound or DMSO was diluted in 200 nM cyclic GMP solution and added to wells of a 96 well white plate to give 100 nM cyclic GMP in 1% DMSO final concentration. PDE (1A3, 1B or 1C) was diluted to 2× working concentration in HTRF assay buffer with 2 μg/ml Calmodulin, and 10 μl was added to initiate the reaction. The plate was then incubated for 45 minutes at 27° C. d2-Labelled cyclic GMP and anti-cGMP cryptate were diluted in 50 mM phosphate buffer, 0.8 M KF, 1% Triton X100, 0.2% BSA, pH 7.0. Following incubation 10 μl d2-cGMP, then 10 μl anti cGMP cryptate were added to each well and the plate was incubated for 60 minutes at room temperature. The plate was then read on Perkin Elmer EnVision at 2 different FRET readings ex/em 340 nm/665 nm and 340 nm/615 nm.
(§4) Compounds having an IC50 of <1 μM are denoted as +++. Compounds having an IC50 of 1-10 μM are denoted as ++. Compounds having an IC50 of 10-100 μM are denoted as +.
A general note: TR-FRET usually uses a lanthanide donor and a delayed reading to cut background.

In assay [2] the target is PDE1B (Homo sapiens, UniProt Q01064). Description: In vitro HTRF PDE1 inhibition assay (PDE1B). To be noted: in vitro PDE1B HTRF Assay; read-out: IC50.
Protocol: The Cisbio cGMP HTRF assay kit (Cat no: 62GM2PEC) was utilized. Cyclic GMP was diluted to 200 nM in HTRF assay buffer (1 mM CaCl2, 10 mM MgCl2, 10 mM Tris-HCl, 0.1% BSA, pH 7.4). […] PDE (1A3, 1B or 1C) was diluted to 2× working concentration in HTRF assay buffer with 2 μg/ml Calmodulin, and 10 μl was added to initiate the reaction. The plate was then incubated for 45 minutes at 27° C. d2-Labelled cyclic GMP and anti-cGMP cryptate were diluted in 50 mM phosphate buffer, 0.8 M KF, 1% Triton X100, 0.2% BSA, pH 7.0. Following incubation 10 μl d2-cGMP, then 10 μl anti cGMP cryptate were added to each well and the plate was incubated for 60 minutes at room temperature. The plate was then read on Perkin Elmer EnVision at 2 different FRET readings ex/em 340 nm/665 nm and 340 nm/615 nm.
The target in assay [3] is PDE1A3 (Homo sapiens, UniProt P54750). Description: In vitro HTRF PDE1 inhibition assay (PDE1A3). The settings on record: PDE1A3, 100 nM cyclic GMP.
Source text: as §1, §2, §3, §4

pIC50: −log10 of the molar value.

Chain of PDE1B (Q01064 whole entry): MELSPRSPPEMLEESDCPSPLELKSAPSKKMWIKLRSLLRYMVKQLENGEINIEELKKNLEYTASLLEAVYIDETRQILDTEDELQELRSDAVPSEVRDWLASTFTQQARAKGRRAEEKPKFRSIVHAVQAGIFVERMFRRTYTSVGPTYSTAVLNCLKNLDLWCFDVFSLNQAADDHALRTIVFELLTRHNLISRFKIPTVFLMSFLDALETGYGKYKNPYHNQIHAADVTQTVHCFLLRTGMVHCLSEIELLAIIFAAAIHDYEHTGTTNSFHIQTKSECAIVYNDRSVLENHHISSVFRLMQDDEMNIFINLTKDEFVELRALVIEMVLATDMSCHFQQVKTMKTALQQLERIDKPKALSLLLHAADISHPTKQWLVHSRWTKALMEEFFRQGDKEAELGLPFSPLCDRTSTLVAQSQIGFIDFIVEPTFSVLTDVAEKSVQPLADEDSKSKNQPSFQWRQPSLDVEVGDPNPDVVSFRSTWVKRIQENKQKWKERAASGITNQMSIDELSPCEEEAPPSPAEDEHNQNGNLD

For orientation: IC50 means the concentration that inhibits the measured activity by half. In general, pIC50 refers to −log10 of the IC50, conventionally taken in molar units. For the molecule `CCO[C@H]1CC[C@@H](COc2nn3c(C4CCOCC4)ncc3c(=O)n2C)CC1` [Example 247], the IC50 in assay [1] and in assay [3] was less than 1 µM each time. Moreover, the pIC50 in assay [2] was more than 6.00.

As for `CCn1c(COc2ccc(F)cc2)nn2c(C3CCOCC3)ncc2c1=O` [Example 259, 3-Ethyl-2-[(4-fluorophenoxy)methyl]-7-(tetrahydro-2H-pyran-4-yl)imidazo[5,1-f][1,2,4]triazin-4(3H)-one], the pIC50 in assay [2] was more than 6.00.

In the case of `CCn1c(COC2CCC(F)(F)CC2)nn2c(C3CCOCC3)ncc2c1=O` [Example 260, 2-{[(4,4-Difluorocyclohexyl)oxy]methyl}-3-ethyl-7-(tetrahydro-2H-pyran-4-yl)imidazo[5,1-f][1,2,4]triazin-4(3H)-one], the negative-log IC50 (pIC50) in assay [2] was more than 6.00.

Turning to `COc1nn2c(C(C)C)ncc2c(=O)n1Cc1ccccn1` [Example 262], in assay [2], the pIC50 is more than 6.00.

For the molecule `COc1nn2c(C(C)C)ncc2c(=O)n1CC1CCC(F)(F)CC1` [Example 263], in assay [2], the pIC50 is more than 6.00.

Turning to `COc1nn2c(C3CCOCC3)ncc2c(=O)n1Cc1ccc(C)cc1` [Example 264], in assay [2], the negative logarithm of the IC50 (pIC50) is more than 6.00.

Regarding `COc1ccc(Cn2c(OC)nn3c(C4CCOCC4)ncc3c2=O)cc1` [Example 265], in assay [2], the pIC50 was more than 6.00.

`COc1cccc(Cn2c(OC)nn3c(C4CCOCC4)ncc3c2=O)c1` [Example 266]: the pIC50 in assay [2] was more than 6.00.

On to `COc1nn2c(C3CCOCC3)ncc2c(=O)n1Cc1cccnc1` [Example 267], for which the pIC50 in assay [2] was 5.00 to 6.00.

Consider `COc1nn2c(C3CCOCC3)ncc2c(=O)n1Cc1ccccn1` [Example 268], for which the pIC50 in assay [2] was 5.00 to 6.00.

Regarding `COc1nn2c(C3CCOCC3)ncc2c(=O)n1Cc1ccc(F)cn1` [Example 269], the pIC50 in assay [2] was more than 6.00.

Regarding `CCCn1c(OC)nn2c(C3CCOCC3)ncc2c1=O` [Example 270], the pIC50 in assay [2] was more than 6.00.

Regarding `COc1nn2c(C3CCOCC3)ncc2c(=O)n1CC(C)C` [Example 271], the pIC50 in assay [2] was more than 6.00.

Consider `COc1nn2c(C3CCOCC3)ncc2c(=O)n1CC1CC1` [Example 272], for which the pIC50 in assay [2] is more than 6.00.

As to `COc1nn2c(C3CCOCC3)ncc2c(=O)n1CC1CCC1` [Example 273], in assay [2], the pIC50 was more than 6.00.

Take `COc1nn2c(C3CCOCC3)ncc2c(=O)n1CC1CCCC1` [Example 274]: in assay [2], the pIC50 was more than 6.00.

Turning to `COc1nn2c(C3CCOCC3)ncc2c(=O)n1CC1CCCCC1` [Example 275], in assay [2], the pIC50 is more than 6.00.

As for `COc1nn2c(C3CCOCC3)ncc2c(=O)n1CCC(F)(F)F` [Example 276], the pIC50 in assay [2] is 5.00 to 6.00.

With `COCCn1c(OCC2CCC(F)(F)CC2)nn2c(C3CCOCC3)ncc2c1=O` [Example 277], the pIC50 in assay [2] is 5.00 to 6.00.

As for `COCCn1c(OCC2CCC(F)(F)CC2)nn2c(C(C)C)ncc2c1=O` [Example 278], the pIC50 in assay [2] is more than 6.00.

Take `COCCn1c(OCc2ccc(F)cc2)nn2c(C3CCOCC3)ncc2c1=O` [Example 279]: the pIC50 in assay [2] is more than 6.00.

Consider `COc1nn2c(C3CCOCC3)ncc2c(=O)n1Cc1ccc(C#N)cc1` [Example 280], for which the pIC50 in assay [2] is 4.00 to 5.00.

As for `COc1nn2c(C3CCOCC3)ncc2c(=O)n1Cc1ccncc1` [Example 281], the pIC50 in assay [2] is 5.00 to 6.00.

Consider `Cn1c(OCCC2(C(F)(F)F)CC2)nn2c(C3CCOCC3)ncc2c1=O` [Example 282], for which the pIC50 in assay [2] is more than 6.00.

For `Cn1c(OCC2CCC(OC(F)(F)F)CC2)nn2c(C3CCOCC3)ncc2c1=O` (stereo not drawn) [Example 284], the pIC50 in assay [2] is more than 6.00.

Turning to `CCn1c(OCC2CCC(OC(F)(F)F)CC2)nn2c(C3CCOCC3)ncc2c1=O` (stereo not drawn) [Example 285], the pIC50 in assay [2] is more than 6.00.

For the molecule `COC[C@H]1CC[C@H](COc2nn3c(C4CCOCC4)ncc3c(=O)n2C)CC1` [Example 286], the pIC50 in assay [2] was more than 6.00.

Take `CCn1c(OC[C@H]2CC[C@H](COC)CC2)nn2c(C3CCOCC3)ncc2c1=O` [Example 287]: in assay [2], the pIC50 is more than 6.00.

Turning to `CCOC[C@H]1CC[C@H](COc2nn3c(C4CCOCC4)ncc3c(=O)n2CC)CC1` [Example 289], the pIC50 in assay [2] was more than 6.00.

For the molecule `Cn1c(OC[C@H]2CC[C@H](CO)CC2)nn2c(C3CCOCC3)ncc2c1=O` [Example 290], the pIC50 in assay [2] was more than 6.00.

Turning to `CCO[C@H]1CC[C@H](COc2nn3c(C4CCOCC4)ncc3c(=O)n2C2CC2)CC1` [Example 291], in assay [2], the pIC50 was more than 6.00.

Turning to `Cn1c(OCc2ccc(C(F)(F)F)cc2)nn2c(C3CCOCC3)ncc2c1=O` [Example 292], in assay [2], the pIC50 was more than 6.00.

Take `Cn1c(OCc2ccc(OC(F)(F)F)cc2)nn2c(C3CCOCC3)ncc2c1=O` [Example 293]: the pIC50 in assay [2] is more than 6.00.

For the molecule `Cn1c(OCC2(C(F)(F)F)CCCC2)nn2c(C3CCOCC3)ncc2c1=O` [Example 295], the pIC50 in assay [2] was more than 6.00.

As for `CCn1c(OCC2(C(F)(F)F)CCCC2)nn2c(C3CCOCC3)ncc2c1=O` [Example 296], the pIC50 in assay [2] was more than 6.00.

`Cn1c(OCC2(C(F)(F)F)CCCCC2)nn2c(C3CCOCC3)ncc2c1=O` [Example 297]: the pIC50 in assay [2] is more than 6.00.

Consider `Cn1c(OCC23CC4CC(CC(C4)C2)C3)nn2c(C3CCOCC3)ncc2c1=O` [Example 298], for which the pIC50 in assay [2] is more than 6.00.

For `Cn1c(OC2CCCC2)nn2c(C3CCOCC3)ncc2c1=O` [Example 299], in assay [2], the pIC50 was more than 6.00.

As to `CCn1c(OC2CCCC2)nn2c(C3CCOCC3)ncc2c1=O` [Example 300], in assay [2], the pIC50 is more than 6.00.

Regarding `Cn1c(O[C@H]2CC[C@H](O)CC2)nn2c(C3CCOCC3)ncc2c1=O` [Example 301], in assay [2], the pIC50 was more than 6.00.

As to `Cn1c(OC2CCC(F)(F)CC2)nn2c(C3CCOCC3)ncc2c1=O` [Example 303], in assay [2], the pIC50 was more than 6.00.

As to `Cn1c(O[C@H]2CC[C@H](C(F)(F)F)CC2)nn2c(C3CCOCC3)ncc2c1=O` [Example 305, 3-methyl-7-(tetrahydro-2H-pyran-4-yl)-2-{[trans-4-(trifluoromethyl)cyclohexyl]oxy}-imidazo[5,1-f][1,2,4]triazin-4(3H)-one], the pIC50 in assay [2] was more than 6.00.

On to `Cn1c(O[C@H]2CC[C@@H](C(F)(F)F)CC2)nn2c(C3CCOCC3)ncc2c1=O` [Example 307], for which the pIC50 in assay [2] was more than 6.00.

With `CCn1c(O[C@H]2CC[C@@H](C(F)(F)F)CC2)nn2c(C3CCOCC3)ncc2c1=O` [Example 308], the pIC50 in assay [2] was more than 6.00.

`CO[C@H]1CC[C@H](Oc2nn3c(C4CCOCC4)ncc3c(=O)n2C(C)C)CC1` [Example 311]: the pIC50 in assay [2] is more than 6.00.

Consider `CCO[C@H]1CC[C@H](Oc2nn3c(C4CCOCC4)ncc3c(=O)n2C)CC1` [Example 314], for which the pIC50 in assay [2] is more than 6.00.

Turning to `COC[C@H]1CC[C@H](Oc2nn3c(C4CCOCC4)ncc3c(=O)n2C)CC1` [Example 316], the pIC50 in assay [2] was more than 6.00.

`CCn1c(O[C@H]2CC[C@@H](COC)CC2)nn2c(C3CCOCC3)ncc2c1=O` [Example 319]: the negative logarithm of the IC50 (pIC50) in assay [2] was more than 6.00.

For `CCOC[C@H]1CC[C@@H](Oc2nn3c(C4CCOCC4)ncc3c(=O)n2C)CC1` [Example 320], the pIC50 in assay [2] is more than 6.00.

Take `CCOC[C@H]1CC[C@@H](Oc2nn3c(C4CCOCC4)ncc3c(=O)n2CC)CC1` [Example 321]: in assay [2], the pIC50 is more than 6.00.

Take `Cn1c(OC[C@H]2CC[C@H](C(F)(F)F)CC2)nn2c(C3(O)CCOCC3)ncc2c1=O` [Example 326, 7-(4-hydroxytetrahydro-2H-pyran-4-yl)-3-methyl-2-{[trans-4-(trifluoromethyl)cyclohexyl]-methoxy}imidazo[5,1-f][1,2,4]triazin-4(3H)-one]: the pIC50 in assay [2] is 5.00 to 6.00.

Regarding `Cn1c(OC[C@H]2CC[C@H](C(F)(F)F)CC2)nn2c(C3(O)CCCCC3)ncc2c1=O` [Example 327, 7-(1-Hydroxycyclohexyl)-3-methyl-2-{[trans-4-(trifluoromethyl)cyclohexyl]-methoxy}imidazo[5,1-f][1,2,4]triazin-4(3H)-one], in assay [2], the pIC50 is 5.00 to 6.00.

With `Cn1c(OC[C@H]2CC[C@H](C(F)(F)F)CC2)nn2c(C3=CCOCC3)ncc2c1=O` [Example 328, 7-(3,6-dihydro-2H-pyran-4-yl)-3-methyl-2-{[trans-4-(trifluoromethyl)cyclohexyl]methoxy}-imidazo[5,1-f][1,2,4]triazin-4(3H)-one], the pIC50 in assay [2] is more than 6.00.

`Cn1c(OC[C@H]2CC[C@H](C(F)(F)F)CC2)nn2c(C3=CCCCC3)ncc2c1=O` [Example 329, 7-(Cyclohex-1-en-1-yl)-3-methyl-2-{[trans-4-(trifluoromethyl)cyclohexyl]-methoxy}imidazo[5,1-f][1,2,4]triazin-4(3H)-one]: the pIC50 in assay [2] is 5.00 to 6.00.

`CCn1c(OCC2CCC(F)(F)CC2)nn2c(N3CCCC3)ncc2c1=O` [Example 332, 2-[(4,4-Difluorocyclohexyl)methoxy]-3-ethyl-7-(pyrrolidin-1-yl)imidazo[5,1-f][1,2,4]triazin-4(3H)-one]: the pIC50 in assay [2] was 4.00 to 5.00.
